In patent US20250197377A1, “NOVEL PHARMACEUTICAL SALTS AND POLYMORPHIC FORMS OF AN ERBB AND BTK INHIBITOR” (DIZAL (JIANGSU) PHARMACEUTICAL CO., LTD., priority 2021, published 2025):
Converted amounts (≈) assume the structure as drawn. “And” between values parts separate entries of the source, which are not always exact repeats. Equal entries are not always repeated.

What was measured:
EGFR 19Del = biological target: T1, EGFR 19Del (Homo sapiens, UniProt P00533, DEL746-750); assay: In vitro cell based assay, PD IC50, PC-9
T1 construct: Form A and B in vitro cell based assay; endogenous in cells; host or cells: PC-9
T1 sequence (P00533 with tags, fused parts or gaps DEL746-750): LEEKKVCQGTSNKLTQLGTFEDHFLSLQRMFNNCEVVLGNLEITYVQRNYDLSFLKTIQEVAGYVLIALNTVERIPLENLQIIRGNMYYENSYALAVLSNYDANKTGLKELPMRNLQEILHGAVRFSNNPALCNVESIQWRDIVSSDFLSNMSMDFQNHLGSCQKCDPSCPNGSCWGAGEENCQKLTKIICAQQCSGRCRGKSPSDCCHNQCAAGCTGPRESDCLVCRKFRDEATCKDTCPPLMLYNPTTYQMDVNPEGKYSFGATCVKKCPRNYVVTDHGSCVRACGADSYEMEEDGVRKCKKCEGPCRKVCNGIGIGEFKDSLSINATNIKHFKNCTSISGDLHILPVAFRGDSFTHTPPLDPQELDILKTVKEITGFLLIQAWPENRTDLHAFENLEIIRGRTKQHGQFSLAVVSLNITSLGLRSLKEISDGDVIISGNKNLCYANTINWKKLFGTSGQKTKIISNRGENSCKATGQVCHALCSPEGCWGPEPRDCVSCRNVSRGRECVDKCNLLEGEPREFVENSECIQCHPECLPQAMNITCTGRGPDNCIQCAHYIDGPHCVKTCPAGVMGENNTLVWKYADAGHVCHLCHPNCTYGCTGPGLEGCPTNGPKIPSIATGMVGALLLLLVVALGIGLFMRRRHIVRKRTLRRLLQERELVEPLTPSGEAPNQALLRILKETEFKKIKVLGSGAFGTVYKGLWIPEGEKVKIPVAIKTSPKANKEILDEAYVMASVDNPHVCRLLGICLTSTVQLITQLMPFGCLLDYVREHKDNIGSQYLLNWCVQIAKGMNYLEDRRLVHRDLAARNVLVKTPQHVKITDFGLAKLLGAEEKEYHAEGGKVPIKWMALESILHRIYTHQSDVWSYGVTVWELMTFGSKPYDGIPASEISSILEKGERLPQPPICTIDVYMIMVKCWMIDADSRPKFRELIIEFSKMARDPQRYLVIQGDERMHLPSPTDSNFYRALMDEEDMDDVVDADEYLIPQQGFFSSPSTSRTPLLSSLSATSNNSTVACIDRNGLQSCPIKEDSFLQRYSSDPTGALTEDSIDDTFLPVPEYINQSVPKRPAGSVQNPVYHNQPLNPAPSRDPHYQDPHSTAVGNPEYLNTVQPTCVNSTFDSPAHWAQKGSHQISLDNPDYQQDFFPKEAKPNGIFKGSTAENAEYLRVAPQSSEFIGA

NCI-H1975 = assay: In vitro cell based assay, anti-proliferation GI50, NCI-H1975; conditions: EGFR L858R/T790M
[1] = Stability in storage for Form B (XRPD, DSC); assay type: physicochemical; conditions: stored at 2-8° C. for at least 20 d
EGFR H773_V774insNPH = biological target: T2, EGFR H773_V774insNPH (Homo sapiens, UniProt P00533, INS773NPH); assay: In vitro cell based assay, PD IC50, Ba/F3_NPH
T2 construct: expressed in transfected cells; host or cells: Ba/F3 (Ba/F3_NPH)
T2 sequence (P00533 with tags, fused parts or gaps INS773NPH): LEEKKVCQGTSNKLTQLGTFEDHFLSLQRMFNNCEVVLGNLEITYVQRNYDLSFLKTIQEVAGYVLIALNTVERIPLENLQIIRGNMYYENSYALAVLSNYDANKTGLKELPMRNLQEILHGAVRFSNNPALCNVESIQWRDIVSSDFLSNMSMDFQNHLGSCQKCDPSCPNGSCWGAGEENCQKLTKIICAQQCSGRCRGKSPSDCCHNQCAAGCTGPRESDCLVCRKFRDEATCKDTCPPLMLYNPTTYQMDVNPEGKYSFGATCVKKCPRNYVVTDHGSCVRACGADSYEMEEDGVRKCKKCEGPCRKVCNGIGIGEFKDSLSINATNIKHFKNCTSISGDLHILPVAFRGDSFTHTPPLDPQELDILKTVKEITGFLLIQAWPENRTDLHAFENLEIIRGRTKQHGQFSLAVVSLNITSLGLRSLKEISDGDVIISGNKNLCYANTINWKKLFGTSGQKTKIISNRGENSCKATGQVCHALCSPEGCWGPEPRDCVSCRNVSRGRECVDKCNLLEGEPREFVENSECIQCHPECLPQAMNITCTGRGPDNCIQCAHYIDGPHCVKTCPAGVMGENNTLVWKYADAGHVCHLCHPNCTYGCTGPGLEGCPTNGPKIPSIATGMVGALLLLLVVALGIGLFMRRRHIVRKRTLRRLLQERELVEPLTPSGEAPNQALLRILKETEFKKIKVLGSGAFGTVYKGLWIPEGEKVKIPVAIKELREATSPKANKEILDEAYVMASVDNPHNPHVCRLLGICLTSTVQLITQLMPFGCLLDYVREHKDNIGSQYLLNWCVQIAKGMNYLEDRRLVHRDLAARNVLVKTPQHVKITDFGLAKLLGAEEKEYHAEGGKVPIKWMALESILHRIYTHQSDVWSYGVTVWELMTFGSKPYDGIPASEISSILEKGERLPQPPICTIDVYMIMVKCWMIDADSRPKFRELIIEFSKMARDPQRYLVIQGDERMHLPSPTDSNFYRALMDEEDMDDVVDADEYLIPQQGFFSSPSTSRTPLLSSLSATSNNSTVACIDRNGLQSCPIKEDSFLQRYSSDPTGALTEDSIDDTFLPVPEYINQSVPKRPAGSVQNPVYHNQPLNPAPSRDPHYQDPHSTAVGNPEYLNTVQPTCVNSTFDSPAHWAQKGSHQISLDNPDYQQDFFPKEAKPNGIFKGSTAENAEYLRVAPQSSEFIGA

3T3_YVMA = assay: In vitro cell based assay, anti-proliferation GI50, 3T3_YVMA; conditions: HER2 A775_G776insYVMA
[2] = PK study of Form A and Form B in Rat; assay type: in vivo
EGFR Wildtype = biological target: T3, EGFR Wildtype (Homo sapiens, UniProt P00533); assay: In vitro cell based assay, PD IC50, A431
T3 construct: Form A and B in vitro cell based assay; endogenous in cells; host or cells: A431
T3 sequence (P00533 25-1210): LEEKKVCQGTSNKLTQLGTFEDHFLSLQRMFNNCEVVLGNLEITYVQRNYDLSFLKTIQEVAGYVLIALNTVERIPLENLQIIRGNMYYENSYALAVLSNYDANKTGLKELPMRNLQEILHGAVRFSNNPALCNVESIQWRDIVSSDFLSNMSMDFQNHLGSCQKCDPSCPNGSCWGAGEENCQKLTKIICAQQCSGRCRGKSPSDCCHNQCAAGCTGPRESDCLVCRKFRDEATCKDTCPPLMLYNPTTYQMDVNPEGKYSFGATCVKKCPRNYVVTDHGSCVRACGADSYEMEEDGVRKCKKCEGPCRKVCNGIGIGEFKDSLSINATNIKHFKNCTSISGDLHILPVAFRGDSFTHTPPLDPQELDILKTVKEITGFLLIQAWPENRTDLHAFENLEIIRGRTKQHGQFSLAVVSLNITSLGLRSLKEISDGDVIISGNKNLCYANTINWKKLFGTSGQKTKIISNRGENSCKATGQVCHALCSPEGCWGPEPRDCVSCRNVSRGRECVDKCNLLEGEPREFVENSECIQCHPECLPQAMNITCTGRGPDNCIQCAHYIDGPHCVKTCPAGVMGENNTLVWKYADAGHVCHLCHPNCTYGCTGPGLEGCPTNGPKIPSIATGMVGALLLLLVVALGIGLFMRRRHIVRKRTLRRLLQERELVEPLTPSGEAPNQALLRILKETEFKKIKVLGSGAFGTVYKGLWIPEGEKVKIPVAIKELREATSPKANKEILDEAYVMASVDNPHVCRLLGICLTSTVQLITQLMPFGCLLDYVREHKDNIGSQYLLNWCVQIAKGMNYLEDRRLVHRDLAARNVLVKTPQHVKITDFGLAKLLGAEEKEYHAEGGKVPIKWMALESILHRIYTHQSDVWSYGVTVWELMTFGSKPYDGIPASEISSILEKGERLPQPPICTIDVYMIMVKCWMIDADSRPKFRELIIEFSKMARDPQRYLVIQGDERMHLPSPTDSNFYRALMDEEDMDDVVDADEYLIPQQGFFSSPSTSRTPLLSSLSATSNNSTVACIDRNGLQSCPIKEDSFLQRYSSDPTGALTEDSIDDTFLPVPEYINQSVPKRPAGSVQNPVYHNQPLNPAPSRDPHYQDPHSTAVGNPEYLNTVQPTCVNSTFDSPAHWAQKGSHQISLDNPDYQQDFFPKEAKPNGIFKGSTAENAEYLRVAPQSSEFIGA

[3] = Water activity study of Form A and Form B (slurry, XRPD); assay type: physicochemical; conditions: 24~27° C. (before dry)
Procedure: To study the effects of water on the stability of Form A and Form B, slurry experiments in the systems with different water activity were carried out. Form A or Form B was suspended separately in different water activity systems (Table 4). […] Residual solids were filtered and then dried in the vacuum oven at 45° C. for 8-24 hours. Dry solids were characterized by XRPD.

[4] = PK study of Form A and Form B in Dog; assay type: in vivo; conditions: 10 mg/kg
Ba/F3_NPH = assay: In vitro cell based assay, anti-proliferation GI50, Ba/F3_NPH; conditions: EGFR H773_V774insNPH
[5] = Milling study of Form B (grinding and jet milling); assay type: physicochemical
Procedure: Grinding and jet milling were carried out. About 10 mg Form B was added into mortar and grinded by pestle for 1 min and 2 min. Jet milling of Form B in 500 mg scale was performed. Samples before and after grinding and milling were analyzed by XRPD. • Instrument: Jet mill (Equipment number: PPD-OAJ-1) • Feeding speed: Manual • Feeding pressure: 0.3˜0.6 MPa • Milling One Pressure: 0.4˜0.8 MPa • Milling Two Pressure: 0.4˜0.8 MPa
Grinding and jet milling were carried out to test physical stability of Form B in the milling process. As shown in XRPD results of obtained solids after grinding (FIG. 25), jet milling (FIG. 24), and DSC profile after jet milling (FIG. 26), the crystallinity decreased after grinding, but the crystal form of Form B was unchanged after milling and grinding.

EGFR L858R/T790M = biological target: T4, EGFR L858R/T790M (Homo sapiens, UniProt P00533, L858R/T790M); assay: In vitro cell based assay, PD IC50, NCI-H1975
T4 construct: Form A and B in vitro cell based assay; endogenous in cells; host or cells: NCI-H1975

[6] = Form A and Form B inter-conversion study (competitive slurry, XRPD); assay type: physicochemical
Procedure: Competitive slurry experiments were conducted to evaluate the relative stability of Form A and Form B. Inter-conversion study was performed at room temperature and 50° C. using single and binary solvents listed in the Table 1 below. About 80 mg (100 mg for 50° C.) of Form A and Form B (1:1, w/w) was weighed into sample vials (8 mL) and then 3 mL (2 mL for 50° C.) of solvents were added to each vial. The obtained suspensions were kept stirring for 7 days at room temperature and 50° C., then filtered at specified time. The wet and dried solids were analyzed by XRPD (dried in vacuum oven at 45° C.).
Form B was dominant in tested solvent systems with water activity below 0.15 at room temperature (24˜27° C.). […] Pure Form A and Form B were stable during drying process (50° C., vacuum) for at least 2 days.

[7] = Solubility in organic solvents and water; assay type: physicochemical; conditions: r.t.
[8] = Solubility in bio-relevant media; assay type: physicochemical; conditions: for pH value at 24 h: solubility sample at 24 h
PC-9 = assay: In vitro cell based assay, anti-proliferation GI50, PC-9; conditions: EGFR 19Del
[9] = Dynamic moisture sorption analysis (DVS); assay type: physicochemical
Procedure: DVS was determined using DVS Advantage-1 or Intrinsic (SMS, UK). The sample was tested at a targeted RH of 10 to 90% full cycle in step mode. The analysis was performed in 10% RH increments. Equilibrium:60 min RH (%) measurement points: First cycle: 0, 10, 20, 30, 40, 50, 60, 70, 80, 90. Second cycle: 90, 80, 70, 60, 50, 40, 30, 20, 10, 0.

A431 = assay: In vitro cell based assay, anti-proliferation GI50, A431; conditions: EGFR Wildtype
HER2 A775_G776insYVMA = biological target: T5, HER2 A775_G776insYVMA (Homo sapiens, UniProt P04626, INS775YVMA); assay: In vitro cell based assay, PD IC50, 3T3_YVMA
T5 construct: expressed in transfected cells; host or cells: 3T3 (3T3_YVMA)
T5 sequence (P04626 with tags, fused parts or gaps INS775YVMA): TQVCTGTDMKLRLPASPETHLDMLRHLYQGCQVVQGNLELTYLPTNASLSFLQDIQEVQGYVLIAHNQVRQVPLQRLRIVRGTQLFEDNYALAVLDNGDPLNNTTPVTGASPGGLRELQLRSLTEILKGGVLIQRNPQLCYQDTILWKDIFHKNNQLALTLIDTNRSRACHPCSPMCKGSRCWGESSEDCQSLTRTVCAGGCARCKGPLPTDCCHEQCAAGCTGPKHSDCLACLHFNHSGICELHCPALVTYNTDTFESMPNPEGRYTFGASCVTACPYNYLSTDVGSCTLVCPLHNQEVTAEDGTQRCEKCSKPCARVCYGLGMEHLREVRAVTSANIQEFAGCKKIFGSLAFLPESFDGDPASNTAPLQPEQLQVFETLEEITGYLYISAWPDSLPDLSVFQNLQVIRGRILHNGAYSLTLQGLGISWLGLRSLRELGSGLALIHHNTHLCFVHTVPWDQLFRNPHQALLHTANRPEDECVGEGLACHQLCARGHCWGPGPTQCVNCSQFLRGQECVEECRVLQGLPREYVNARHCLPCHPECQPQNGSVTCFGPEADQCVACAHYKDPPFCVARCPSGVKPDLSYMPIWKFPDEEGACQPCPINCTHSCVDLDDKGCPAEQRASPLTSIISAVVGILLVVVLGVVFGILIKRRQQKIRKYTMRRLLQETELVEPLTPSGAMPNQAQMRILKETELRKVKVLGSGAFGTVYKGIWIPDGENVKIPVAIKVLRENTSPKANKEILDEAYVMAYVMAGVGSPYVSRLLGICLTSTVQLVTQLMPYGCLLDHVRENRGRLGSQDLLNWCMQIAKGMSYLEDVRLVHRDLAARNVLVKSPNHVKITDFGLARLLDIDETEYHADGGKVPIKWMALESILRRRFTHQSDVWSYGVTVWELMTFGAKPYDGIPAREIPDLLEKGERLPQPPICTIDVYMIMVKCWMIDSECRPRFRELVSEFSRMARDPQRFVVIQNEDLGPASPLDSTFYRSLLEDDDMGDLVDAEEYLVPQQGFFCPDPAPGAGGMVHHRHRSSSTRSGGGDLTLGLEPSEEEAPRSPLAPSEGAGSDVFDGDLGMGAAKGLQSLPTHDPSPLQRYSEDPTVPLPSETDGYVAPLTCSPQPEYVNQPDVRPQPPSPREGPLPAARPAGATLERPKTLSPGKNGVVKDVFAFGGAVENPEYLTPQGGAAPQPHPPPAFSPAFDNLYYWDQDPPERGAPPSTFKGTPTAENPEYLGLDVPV

Question: Which results are given for C=CC(=O)Nc1cc(Nc2nccc(Nc3cc(Cl)c(F)cc3C(C)(C)O)n2)c(OC)cc1N1CC[C@@H](N(C)C)C1 [Form B, (R)-N-(5-((4-((5-chloro-4-fluoro-2-(2-hydroxypropan-2-yl)phenyl)amino)pyrimidin-2-yl)amino)-2-(3-(dimethylamino)pyrrolidin-1-yl)-4-methoxyphenyl)acrylamide]?
Answer: IC50 (EGFR 19Del): 2.29 nM; GI50 (NCI-H1975): 1.45 nM; Form change after storage (XRPD, DSC) [1]: no form change observed; IC50 (EGFR H773_V774insNPH): 35.2 nM; GI50 (3T3_YVMA): 44.5 nM; Mean AUC0~48 ([2]; 25 mg/kg): 2678 ng·h/mL; Mean Cmax ([2]; 25 mg/kg): 299 ng/mL; Mean t1/2 ([2]; 25 mg/kg): 4.1 h; Median Tmax ([2]; 25 mg/kg): 8.0 h; Mean AUC0~48 ([2]; 75 mg/kg): 8433 ng·h/mL; Mean Cmax ([2]; 75 mg/kg): 672 ng/mL; Mean t1/2 ([2]; 75 mg/kg): 5.8 h; Median Tmax ([2]; 75 mg/kg): 4.0 h; IC50 (EGFR Wildtype): 54.1 nM; XRPD results of slurry in different water activity solvent ([3]; 0% water/acetone, water activity 0, 1 d): Form B; XRPD results of slurry in different water activity solvent ([3]; 0% water/acetone, water activity 0, 3 d): Form B; XRPD results of slurry in different water activity solvent ([3]; 0% water/acetone, water activity 0, 7 d): Form B; XRPD results of slurry in different water activity solvent ([3]; 3% water/acetone, water activity 0.312, 3 d): Form B; XRPD results of slurry in different water activity solvent ([3]; 3% water/acetone, water activity 0.312, 7 d): Form B; XRPD results of slurry in different water activity solvent ([3]; 30% water/acetone, water activity 0.747, 1 d): Form B; XRPD results of slurry in different water activity solvent ([3]; 30% water/acetone, water activity 0.747, 3 d): Form B; XRPD results of slurry in different water activity solvent ([3]; 30% water/acetone, water activity 0.747, 7 d): Form B; XRPD results of slurry in different water activity solvent ([3]; water, 7 d): Form B; AUC0-24 h ([4]; Female (individual animals)): 3.14 hr*μM/(mg/kg) and 3.75 hr*μM/(mg/kg); AUC0-24 h ([4]; Male (individual animals)): 2.88 hr*μM/(mg/kg) and 5.29 hr*μM/(mg/kg); GI50 (Ba/F3_NPH): 66.3 nM; Crystallinity after grinding (XRPD) ([5]; grinding): decreased; Crystal form after milling and grinding (XRPD, DSC) ([5]; grinding 1 min and 2 min, jet milling): unchanged; IC50 (EGFR L858R/T790M): 2.07 nM; Stability of pure form during drying process ([6]; 50° C., vacuum, at least 2 days): stable; Relative stability of Form A and Form B in competitive slurry ([6]; 50° C., all the tested solvent systems except pure water): more stable than Form A; Relative stability of Form A and Form B in competitive slurry ([6]; tested solvent systems with water activity below 0.15, room temperature (24~27° C.)): dominant; Solubility ([7]; Acetone): S < 5.88 mg/ml; Solubility ([7]; Acetonitrile): S < 0.97 mg/ml; Solubility ([7]; Ethyl acetate): S < 1.06 mg/ml; Solubility ([7]; Isopropanol): S ~ 4.677 mg/ml; Solubility ([7]; MTBE): S < 1.57 mg/ml; Solubility ([7]; MeOH): 24.00 < S mg/ml; Solubility ([7]; THF): 12.70 < S mg/ml; Solubility ([7]; water): S < 2.73 mg/ml; solubility at 0.5 h ([8]; FaSSIF): 150 µg/mL (≈ 257 µM); solubility at 2 h ([8]; FaSSIF, 2 h): 160 µg/mL (≈ 274 µM); solubility at 24 h ([8]; FaSSIF, 24 h): 240 µg/mL (≈ 411 µM); pH value at 24 h ([8]; FaSSIF): 6.43; solubility at 0.5 h ([8]; FeSSIF): 3180 µg/mL (≈ 5440 µM); Solubility ([8]; FeSSIF, 2 h): 2290 µg/mL (≈ 3920 µM); solubility at 24 h ([8]; FeSSIF, 24 h): 11200 µg/mL (≈ 19200 µM); pH value at 24 h ([8]; FeSSIF): 5.50; solubility at 0.5 h ([8]; SGF, simulated gastric fluid): 23500 µg/mL (≈ 40300 µM); solubility at 2 h ([8]; SGF, simulated gastric fluid, 2 h): 24200 µg/mL (≈ 41400 µM); solubility at 24 h ([8]; SGF, simulated gastric fluid, 24 h): 25800 µg/mL (≈ 44100 µM); pH value at 24 h ([8]; SGF): 5.15; solubility at 0.5 h ([8]; SIF, fassgf or other biorelevant): 18 µg/mL (≈ 30.8 µM); solubility at 2 h ([8]; SIF, fassgf or other biorelevant, 2 h): 25 µg/mL (≈ 42.8 µM); Solubility ([8]; SIF, 24 h): 520 µg/mL (≈ 890 µM); pH value at 24 h ([8]; SIF): 6.67; GI50 (PC-9): 4.23 nM; DVS (ΔW %, 80% RH) [9]: 0.04%; GI50 (A431): 45.9 nM; IC50 (HER2 A775_G776insYVMA): 3.26 nM
